Patent US4292317A, “1,4-Dihydro-quinoline-3-carboxylic acid derivatives, process for their preparation and compositions containing them” (Laboratorie Roger Bellon, priority 1977, dated 1981)
Values after ≈ are worked out from the molar mass of the structure shown.

How the values were obtained:
[1] = test system: Esch. coli 54.127 O.M.S.; experiment: M.I.C. in vitro, nutrient agar dilution; format: cell-based; conditions: Escherichia coli, 18 h; Table III; Esch. coli 54.127 O.M.S.; read-out: M.I.C.
Summary of the method: (§1)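 Reported value is the lowest concentration that inhibited a culture after 18 hours at 37° C. Plates held compound in a geometric (×2) range of 0.05 to 100 μg/cm^3 in agar of pH 6.8, spotted with 10^-3 diluted 18 hour broth cultures.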

[2] = test system: Ps. aeruginosa 72.345; experiment: M.I.C. in vitro, nutrient agar dilution; format: cell-based; conditions: Pseudomonas aeruginosa, 18 h; Table III; Pd. aeruginosa 72.345; read-out: M.I.C.
Summary of the method: as §1

[3] = test system: B. subtilis; experiment: M.I.C. in vitro, nutrient agar dilution; format: cell-based; conditions: Bacillus subtilis, 18 h; Table III; B. Subtilis; read-out: M.I.C.
Summary of the method: as §1

[4] = test system: Serratia; experiment: M.I.C. in vitro, nutrient agar dilution; format: cell-based; conditions: 18 h, Table III, read-out: M.I.C.
Summary of the method: as §1

[5] = test system: Pr. mirabilis Nig; experiment: M.I.C. in vitro, nutrient agar dilution; format: cell-based; conditions: Proteus mirabilis, 18 h; Table III; Pr. mirabilis Nig; read-out: M.I.C.
Summary of the method: as §1

[6] = test system: Ps. aeruginosa A.22; experiment: M.I.C. in vitro, nutrient agar dilution; format: cell-based; conditions: Pseudomonas aeruginosa, 18 h; Table III; Ps. aeruginosa A.22; read-out: M.I.C.
Summary of the method: as §1

[7] = test system: Esch. coli 95 I.S.M.; experiment: M.I.C. in vitro, nutrient agar dilution; format: cell-based; conditions: Escherichia coli, 18 h; Table III; Esch. coli 95 I.S.M.; read-out: M.I.C.
Summary of the method: as §1

[8] = test system: Staph. 209 P; experiment: M.I.C. in vitro, nutrient agar dilution; format: cell-based; conditions: 18 h; Table III; Staph. 209 P; read-out: M.I.C.
Summary of the method: as §1

[9] = test system: S. enteritidis Danysz; experiment: M.I.C. in vitro, nutrient agar dilution; format: cell-based; conditions: Salmonella enterica, 18 h; Table III; S. enteritidis Danysz; read-out: M.I.C.
Summary of the method: as §1

[10] = test system: Arizona 6.211; experiment: M.I.C. in vitro, nutrient agar dilution; format: cell-based; conditions: 18 h; Table III; Arizona 6.211; read-out: M.I.C.
Summary of the method: as §1

[11] = test system: Strepto A 561; experiment: M.I.C. in vitro, nutrient agar dilution; format: cell-based; conditions: 18 h; Table III; Strepto A 561
Summary of the method: as §1

[12] = test system: Esch. coli 111 B4; experiment: M.I.C. in vitro, nutrient agar dilution; format: cell-based; conditions: Escherichia coli, 18 h; Table III; Esch. coli 111 B4
Summary of the method: (§2)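 Inhibition is scored visually as the lowest inhibitory concentration. Dishes contain compound serially halved from 100 to 0.05 μg/cm^3 in pH 6.8 medium, receive a multiple-inoculator spot of 10^-3 diluted 18 h broth culture, and incubate at 37° C. for 18 hours.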

[13] = test system: Pr. morganii A.236; experiment: M.I.C. in vitro, nutrient agar dilution; format: cell-based; conditions: Morganella morganii, 18 h; Table III; Pr. morganii A. 236; read-out: M.I.C.
Summary of the method: as §1

[14] = test system: Pr. vulgaris 12-53; experiment: M.I.C. in vitro, nutrient agar dilution; format: cell-based; conditions: Proteus vulgaris, 1253, 18 h; Table III; Pr. vulgaris 12-53; read-out: M.I.C.
Summary of the method: as §1

[15] = test system: Sh. sonnei I.P.S.; experiment: M.I.C. in vitro, nutrient agar dilution; format: cell-based; conditions: Shigella sonnei, 18 h
Summary of the method: as §2

[16] = test system: Staph. 9.144; experiment: M.I.C. in vitro, nutrient agar dilution; format: cell-based; conditions: 18 h; Table III; Staph. 9.144; read-out: M.I.C.
Summary of the method: as §1

[17] = test system: Bord. bronchis. 4.617; experiment: M.I.C. in vitro, nutrient agar dilution; format: cell-based; conditions: 18 h; Table III; Bord. bronchis. 4.617; read-out: M.I.C.
Summary of the method: as §1

[18] = test system: S. oranienburg 1066; experiment: M.I.C. in vitro, nutrient agar dilution; format: cell-based; conditions: Salmonella enterica, 18 h; Table III; S. oranienburg 1066; read-out: M.I.C.
Summary of the method: as §1

[19] = test system: Providentia 0223; experiment: M.I.C. in vitro, nutrient agar dilution; format: cell-based; conditions: 18 h; Table III; Providentia 0223; read-out: M.I.C.
Summary of the method: as §1

[20] = test system: Klebs. pneum. 10.031; experiment: M.I.C. in vitro, nutrient agar dilution; format: cell-based; conditions: 18 h; Table III; Klebs. pneum. 10.031; read-out: M.I.C.
Summary of the method: as §1

[21] = test system: Strepto D.M. 19; experiment: M.I.C. in vitro, nutrient agar dilution; format: cell-based; conditions: 18 h; Table III; Strepto D.M. 19; read-out: M.I.C.
Summary of the method: as §1

[22] = test system: Staph. aureus 50,774; experiment: Systemic infection in mice; format: in vivo; conditions: Staphylococcus aureus, po, 336 h, mice, p.o. at infection and 6 hours later, Staph. aureus 50,774, 14 days
Method: (§3) The activity of the compounds according to the invention against systemic infections in mice, caused by Staphylococcus 50,774, Streptococcus pyogenes A 65, Pseudomonas aeruginosa No. 12 and Escherichia coli P 5101, has been studied.
(§4) The infections were set up by intraperitoneal injection of a suspension of the bacterial culture corresponding to the germ studied. The products were administered orally at the time of injection, and 6 hours later. […] Aureus and for 7 days for the other germs.
(§5) Oxolinic acid was used as the reference substance.

[23] = test system: Pseudomonas aeruginosa No. 12; experiment: Systemic infection in mice; format: in vivo; conditions: po, 168 h, mice, p.o. at infection and 6 hours later, P. aeruginosa No. 12, 7 days
Method: as §3, §4, §5

[24] = test system: Escherichia coli P 5101; experiment: Systemic infection in mice; format: in vivo; conditions: P5101, po, 168 h, mice, p.o. at infection and 6 hours later, E. coli P 5101, 7 days
Method: as §3, §4, §5

[25] = test system: Strept. pyogenes A. 65; experiment: Systemic infection in mice; format: in vivo; conditions: Streptococcus pyogenes, po, 168 h, mice, p.o. at infection and 6 hours later, Strept. pyogenes A. 65, 7 days
Method: as §3, §4, §5

[26] = test system: Staph. aureus 50,774; experiment: M.I.C. for germ used in experimental infection; format: cell-based; conditions: Staphylococcus aureus, 18 h; Table 4; Staph. aureus 50,774; read-out: M.I.C.
Method: (§6) After sterilisation at 120° C., the pH was 6.8.
(§7) The minimum inhibitory concentrations (M.I.C.) were determined by dilution of the test compounds in this mixture, the concentration ranging from 0.05 to 100 μg/cm^3 in a geometric progression with a factor of 2.
(§8) The inoculation of the dishes was carried out by means of a multiple inoculator with 10^-3 dilutions of 18 hour old broth cultures.
(§9) The dishes were placed in an oven at 37° C. and the readings were taken afer an incubation time of 18 hours. The M.I.C. was taken as the lowest concentration which inhibited a culture.

[27] = test system: Pseudomonas aeruginosa No. 12; experiment: M.I.C. for germ used in experimental infection; format: cell-based; conditions: 18 h, Table 4, P. aeruginosa No. 12, read-out: M.I.C.
Method: as §6, §7, §8, §9

[28] = test system: Escherichia coli P 5101; experiment: M.I.C. for germ used in experimental infection; format: cell-based; conditions: P5101, 18 h, Table 4, E. coli P 5101, read-out: M.I.C.
Method: as §6, §7, §8, §9

[29] = test system: Strept. pyogenes A. 65; experiment: M.I.C. for germ used in experimental infection; format: cell-based; conditions: Streptococcus pyogenes, 18 h; Table 4; Strept. pyogenes A. 65; read-out: M.I.C.
Method: as §6, §7, §8, §9

[30] = test system: Salm. typhi 0901; experiment: microbe, parasite or virus in culture; format: cell-based; conditions: Salmonella enterica, 18 h; Table III; Salm. typhi 0901
Summary of the method: as §2

Q: With CCn1cc(C(=O)O)c(=O)c2cc(F)c(N3CCNCC3)cc21 [Example 22, 1-Ethyl-6-fluoro-4-oxo-7-piperazinyl-1,4-dihydro-quinoline-3-carboxylic acid] as the compound, how does the MIC [1] read?
A: 0.2 µg/mL (≈ 0.626 µM)

Q: What about the MIC [2] of the same compound?
A: 0.4 to 0.8 µg/mL (≈ 1.25 to 2.51 µM)

Q: What about the MIC [3] of the same compound?
A: 0.2 µg/mL (≈ 0.626 µM)

Q: What about the MIC [4] of the same compound?
A: 1 to 6.2 µg/mL (≈ 3.13 to 19.4 µM)

Q: And the MIC [5]?
A: 0.1 to 0.2 µg/mL (≈ 0.313 to 0.626 µM)

Q: What about the MIC [6] of the same compound?
A: 0.4 to 0.8 µg/mL (≈ 1.25 to 2.51 µM)

Q: And the MIC [7]?
A: 0.2 µg/mL (≈ 0.626 µM)

Q: And the MIC [8]?
A: 0.2 to 0.4 µg/mL (≈ 0.626 to 1.25 µM)

Q: What about the MIC [9] of the same compound?
A: 0.2 µg/mL (≈ 0.626 µM)

Q: And the MIC [10]?
A: 0.2 µg/mL (≈ 0.626 µM)

Q: And the MIC [11]?
A: 50 µg/mL (≈ 157 µM)

Q: And the MIC [12]?
A: 0.1 to 0.2 µg/mL (≈ 0.313 to 0.626 µM)

Q: And the MIC [13]?
A: 0.05 µg/mL (≈ 0.157 µM)

Q: What about the MIC [14] of the same compound?
A: 0.05 µg/mL (≈ 0.157 µM)

Q: And the MIC [15]?
A: 0.01 to 0.02 µg/mL (≈ 0.0313 to 0.0626 µM)

Q: What about the MIC [16] of the same compound?
A: 0.2 to 0.4 µg/mL (≈ 0.626 to 1.25 µM)

Q: What about the MIC [17] of the same compound?
A: 6.25 to 12.5 µg/mL (≈ 19.6 to 39.1 µM)

Q: What about the MIC [18] of the same compound?
A: 6.2 µg/mL (≈ 19.4 µM)

Q: And the MIC [19]?
A: 0.8 to 1.6 µg/mL (≈ 2.51 to 5.01 µM)

Q: And the MIC [20]?
A: 0.1 to 0.2 µg/mL (≈ 0.313 to 0.626 µM)

Q: And the MIC [21]?
A: 1.6 to 3.1 µg/mL (≈ 5.01 to 9.71 µM)

Q: And the ED50 ([22]; read-out: ED50)?
A: 20.6 mg/kg

Q: What about the ED90 ([22]; read-out: ED90) of the same compound?
A: 44.1 mg/kg

Q: And the ED50 ([23]; read-out: ED50)?
A: 17.7 mg/kg

Q: And the ED90 ([23]; read-out: ED90)?
A: 25.9 mg/kg

Q: And the ED50 ([24]; read-out: ED50)?
A: 4 mg/kg

Q: And the ED90 ([24]; read-out: ED90)?
A: 10.4 mg/kg

Q: What about the ED50 ([25]; read-out: ED50) of the same compound?
A: > 100 mg/kg

Q: And the ED90 ([25]; read-out: ED90)?
A: > 100 mg/kg

Q: And the MIC [26]?
A: 0.78 µg/mL (≈ 2.44 µM)

Q: And the MIC [27]?
A: 0.78 µg/mL (≈ 2.44 µM)

Q: What about the MIC [28] of the same compound?
A: 0.1 µg/mL (≈ 0.313 µM)

Q: What about the MIC [29] of the same compound?
A: 1.56 µg/mL (≈ 4.89 µM)

Q: And the MIC [30]?
A: 0.05 to 0.2 µg/mL (≈ 0.157 to 0.626 µM)
